Holding throughout (assay type): biochemical
The target of one assay is T1, PRMT1 (Homo sapiens, UniProt Q99873).
T1 construct: PRMT1 (residues 2–371, C-terminus); with an N-terminal GST-tag; GST (N); purchased Reaction Biology Corporation
The assay can be described thus: HotSpot radioisotope-based filter assay, PRMT1. The settings on record: Figure 2; from IC50 values of ref 31. On the procedure: (§1) Then, ^3H-SAM (final concentration of 1 μM) was delivered into the reaction mixture to initiate the reaction. After incubation for 60 min at 30 °C, the reaction mixture was delivered to filter-paper for detection (as assessed by scintillation). Data were analyzed using Excel and GraphPad Prism 6.0 software (GraphPad Software Inc., San Diego, CA) for IC50 curve fits using sigmoidal dose vs response - variable slope (four parameters) equations.

For another assay, the target named is T2, PRMT7 (Homo sapiens, UniProt Q9NVM4).
T2 construct: PRMT7 (residues 2–692, C-terminus); with an N-terminal His-tag; His (N); purchased Reaction Biology Corporation
T2 sequence (Q9NVM4 2-692): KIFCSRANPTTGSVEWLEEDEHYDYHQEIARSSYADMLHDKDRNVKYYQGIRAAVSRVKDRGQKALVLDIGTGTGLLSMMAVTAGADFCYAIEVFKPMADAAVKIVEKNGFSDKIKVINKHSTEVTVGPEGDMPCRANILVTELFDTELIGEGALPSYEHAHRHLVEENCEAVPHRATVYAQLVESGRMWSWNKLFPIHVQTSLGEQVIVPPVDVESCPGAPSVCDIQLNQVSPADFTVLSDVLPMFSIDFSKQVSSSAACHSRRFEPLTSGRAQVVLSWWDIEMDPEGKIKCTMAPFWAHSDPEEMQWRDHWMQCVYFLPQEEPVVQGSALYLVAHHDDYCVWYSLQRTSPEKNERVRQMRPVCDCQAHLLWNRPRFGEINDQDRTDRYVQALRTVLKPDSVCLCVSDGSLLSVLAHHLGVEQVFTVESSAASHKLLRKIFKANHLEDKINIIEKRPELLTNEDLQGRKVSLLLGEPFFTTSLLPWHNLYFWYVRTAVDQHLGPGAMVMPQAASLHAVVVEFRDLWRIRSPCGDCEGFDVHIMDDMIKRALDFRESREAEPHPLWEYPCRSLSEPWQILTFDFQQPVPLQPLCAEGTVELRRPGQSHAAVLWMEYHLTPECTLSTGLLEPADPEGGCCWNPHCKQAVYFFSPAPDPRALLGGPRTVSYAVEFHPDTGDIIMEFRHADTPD
The assay can be described thus: HotSpot radioisotope-based filter assay, PRMT7. The settings on record: 5 μM GST-GAR, 3H-SAM 1 μM. On the procedure:
as §1

Assay [1] has as its target T3, EZH2/KMT6 (5 component complex) (Homo sapiens, UniProt Q15910).
T3 construct: including EZH2 residues 2–746, AEBP2 2–517, EED 2–441; His (N); purchased Reaction Biology Corporation
Kind of assay: HotSpot KMT activity assay, EZH2. The settings on record: read-out: % EZH2 residual activity. Here is the method:
(§2) Then, ^3H-SAM (final concentration 1 μM) was delivered into the reaction mixture to initiate the reaction. After incubation for 60 min at 30 °C, the reaction mixture was delivered to filter paper for detection (as assessed by scintillation). […] No inhibitor control (DMSO) was considered as showing 100% enzyme activity. Data were analyzed using Excel and GraphPad Prism 6.0 software (GraphPad Software Inc., San Diego, CA). Values obtained for each compound are mean ± SD determined for two separate experiments.

The next assay has as its target T4, DOT1L/KMT4 (Homo sapiens, UniProt Q8TEK3).
T4 construct: the human recombinant DOT1L (residues 1–416); N-terminal GST-tag; GST (N); purchased Reaction Biology Corporation
The assay can be described thus: HotSpot KMT activity assay, DOT1L. On the procedure:
as §2

The structures appear in SMILES notation.

T4 sequence (Q8TEK3 1-416): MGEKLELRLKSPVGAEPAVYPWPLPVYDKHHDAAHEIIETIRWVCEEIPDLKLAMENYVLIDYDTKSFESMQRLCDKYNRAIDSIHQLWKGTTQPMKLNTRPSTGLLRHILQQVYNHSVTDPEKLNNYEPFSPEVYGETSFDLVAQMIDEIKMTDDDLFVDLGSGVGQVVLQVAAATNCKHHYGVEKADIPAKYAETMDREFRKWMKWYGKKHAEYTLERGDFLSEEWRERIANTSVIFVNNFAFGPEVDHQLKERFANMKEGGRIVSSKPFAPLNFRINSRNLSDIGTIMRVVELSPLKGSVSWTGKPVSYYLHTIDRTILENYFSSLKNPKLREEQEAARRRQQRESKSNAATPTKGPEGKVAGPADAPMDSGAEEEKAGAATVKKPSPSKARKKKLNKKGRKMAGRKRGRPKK
T3 sequence (Q15910 2-746): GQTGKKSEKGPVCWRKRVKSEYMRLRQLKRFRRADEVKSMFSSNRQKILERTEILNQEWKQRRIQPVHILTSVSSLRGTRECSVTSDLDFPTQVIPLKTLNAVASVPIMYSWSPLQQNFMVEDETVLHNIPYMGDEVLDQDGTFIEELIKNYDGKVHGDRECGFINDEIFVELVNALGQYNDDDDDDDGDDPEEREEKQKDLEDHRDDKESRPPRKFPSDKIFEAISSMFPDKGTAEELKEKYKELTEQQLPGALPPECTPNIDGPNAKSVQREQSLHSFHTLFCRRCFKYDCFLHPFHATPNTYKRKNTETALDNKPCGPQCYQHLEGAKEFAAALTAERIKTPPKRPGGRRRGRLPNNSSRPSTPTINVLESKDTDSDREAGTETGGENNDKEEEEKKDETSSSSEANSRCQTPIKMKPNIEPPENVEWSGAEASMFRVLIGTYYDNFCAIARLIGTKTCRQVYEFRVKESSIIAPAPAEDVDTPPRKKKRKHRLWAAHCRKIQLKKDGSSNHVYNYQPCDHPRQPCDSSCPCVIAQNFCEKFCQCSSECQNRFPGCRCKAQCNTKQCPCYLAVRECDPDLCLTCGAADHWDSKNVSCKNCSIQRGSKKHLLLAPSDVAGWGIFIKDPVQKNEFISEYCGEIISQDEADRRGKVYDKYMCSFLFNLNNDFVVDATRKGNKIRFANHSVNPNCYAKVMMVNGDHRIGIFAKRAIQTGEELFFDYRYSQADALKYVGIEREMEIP
T3 sequence (Q6ZN18 2-517 partner limits assumed): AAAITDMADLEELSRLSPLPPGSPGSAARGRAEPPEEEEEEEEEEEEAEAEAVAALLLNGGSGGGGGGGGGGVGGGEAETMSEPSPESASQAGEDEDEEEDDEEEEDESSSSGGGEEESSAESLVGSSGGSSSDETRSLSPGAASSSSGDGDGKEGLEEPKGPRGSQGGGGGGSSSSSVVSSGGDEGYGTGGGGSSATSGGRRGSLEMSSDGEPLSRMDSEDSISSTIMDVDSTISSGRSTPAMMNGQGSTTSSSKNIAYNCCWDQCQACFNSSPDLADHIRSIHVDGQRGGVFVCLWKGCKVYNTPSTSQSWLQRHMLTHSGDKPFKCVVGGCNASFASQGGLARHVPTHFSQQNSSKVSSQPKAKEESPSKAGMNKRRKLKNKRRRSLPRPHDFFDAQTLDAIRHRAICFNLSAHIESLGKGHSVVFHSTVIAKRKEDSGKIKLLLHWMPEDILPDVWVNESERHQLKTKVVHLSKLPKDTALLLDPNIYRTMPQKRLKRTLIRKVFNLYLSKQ
T3 sequence (O75530 2-441 partner limits assumed): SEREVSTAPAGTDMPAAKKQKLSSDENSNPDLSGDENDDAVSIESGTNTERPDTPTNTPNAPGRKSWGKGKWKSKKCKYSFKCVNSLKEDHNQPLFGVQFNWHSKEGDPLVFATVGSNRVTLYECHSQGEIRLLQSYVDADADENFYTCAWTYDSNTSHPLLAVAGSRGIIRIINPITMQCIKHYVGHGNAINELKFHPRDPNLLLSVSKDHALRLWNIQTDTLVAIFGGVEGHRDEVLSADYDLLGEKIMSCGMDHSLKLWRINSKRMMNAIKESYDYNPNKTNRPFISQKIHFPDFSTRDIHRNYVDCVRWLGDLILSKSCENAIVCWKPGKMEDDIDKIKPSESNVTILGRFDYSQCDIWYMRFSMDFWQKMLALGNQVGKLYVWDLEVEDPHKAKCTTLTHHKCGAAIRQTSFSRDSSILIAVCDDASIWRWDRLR
T3 sequence (Q09028 2-425 partner limits assumed): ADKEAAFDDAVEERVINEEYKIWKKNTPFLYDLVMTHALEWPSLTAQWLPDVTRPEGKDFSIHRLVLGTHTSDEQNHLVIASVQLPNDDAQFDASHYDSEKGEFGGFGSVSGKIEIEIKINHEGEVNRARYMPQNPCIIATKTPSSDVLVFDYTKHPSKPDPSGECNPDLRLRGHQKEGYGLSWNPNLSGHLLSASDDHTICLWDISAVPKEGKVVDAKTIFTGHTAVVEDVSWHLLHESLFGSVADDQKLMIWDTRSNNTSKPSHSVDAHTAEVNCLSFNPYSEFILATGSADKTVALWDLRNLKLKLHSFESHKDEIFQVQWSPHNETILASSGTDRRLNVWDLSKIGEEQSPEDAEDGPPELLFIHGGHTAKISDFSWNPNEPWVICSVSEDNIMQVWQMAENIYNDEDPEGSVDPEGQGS
T3 sequence (Q15022 2-739 partner limits assumed): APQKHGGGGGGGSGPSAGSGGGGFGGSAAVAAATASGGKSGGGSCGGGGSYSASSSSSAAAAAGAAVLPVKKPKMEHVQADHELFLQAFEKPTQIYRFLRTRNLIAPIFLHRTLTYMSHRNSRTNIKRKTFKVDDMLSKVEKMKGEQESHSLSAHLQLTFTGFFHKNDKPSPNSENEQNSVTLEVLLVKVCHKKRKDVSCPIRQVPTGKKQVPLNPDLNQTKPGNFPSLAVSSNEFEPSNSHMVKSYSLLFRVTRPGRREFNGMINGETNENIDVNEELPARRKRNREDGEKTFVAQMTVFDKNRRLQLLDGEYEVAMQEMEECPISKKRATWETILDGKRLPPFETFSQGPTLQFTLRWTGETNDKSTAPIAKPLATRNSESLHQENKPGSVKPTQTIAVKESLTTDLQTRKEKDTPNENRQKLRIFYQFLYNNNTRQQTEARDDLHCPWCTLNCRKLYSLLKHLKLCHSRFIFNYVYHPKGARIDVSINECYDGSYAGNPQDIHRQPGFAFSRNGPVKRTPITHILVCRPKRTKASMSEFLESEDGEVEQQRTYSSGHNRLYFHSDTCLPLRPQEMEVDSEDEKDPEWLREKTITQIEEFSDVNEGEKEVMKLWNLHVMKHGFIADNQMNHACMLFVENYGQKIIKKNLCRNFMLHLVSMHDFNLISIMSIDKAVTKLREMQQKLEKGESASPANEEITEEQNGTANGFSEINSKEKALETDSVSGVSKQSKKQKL
T1 sequence (Q99873 2-371): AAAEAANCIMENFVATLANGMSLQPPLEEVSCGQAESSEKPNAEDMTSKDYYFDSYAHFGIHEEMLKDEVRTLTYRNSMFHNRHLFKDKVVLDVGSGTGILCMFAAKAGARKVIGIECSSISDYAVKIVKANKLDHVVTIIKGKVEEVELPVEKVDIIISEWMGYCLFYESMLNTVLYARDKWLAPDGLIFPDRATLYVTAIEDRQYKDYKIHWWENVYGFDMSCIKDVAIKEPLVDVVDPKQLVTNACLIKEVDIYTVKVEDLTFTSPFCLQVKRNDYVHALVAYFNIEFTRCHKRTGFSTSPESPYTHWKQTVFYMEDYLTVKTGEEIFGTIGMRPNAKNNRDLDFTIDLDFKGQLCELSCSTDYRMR

Turning to `COC(=O)c1cc(O)c2cc(NC(=O)NCCCCCNC(=N)NC[C@H]3O[C@@H](n4cnc5c(N)ncnc54)[C@H](O)[C@@H]3O)ccc2c1` [1c], the “selectivity index for PRMT7 over PRMT1” value on PRMT1 worked out at 38 fold.
In turn, `COC(=O)c1cc(O)c2cc(NC(=O)NCCCNC(=N)NC[C@H]3O[C@@H](n4cnc5c(N)ncnc54)[C@H](O)[C@@H]3O)cc(C(F)(F)F)c2c1` [1j, Methyl 6-(3-(3-(3-(((2R,3S,4R,5R)-5-(6-Amino-9H-purin-9-yl)-3,4-dihydroxytetrahydrofuran-2-yl)methyl)guanidino)propyl)ureido)-4-hydroxy-8-(trifluoromethyl)-2-naphthoate] displayed an IC50 at PRMT7 of 5.6 µM. Moreover, the remaining activity at 10 µM in assay [1] (10 μM) is 104.5 ± 0.99%; on DOT1L/KMT4 (10 μM, read-out: % DOT1L residual activity), 11.2 ± 0.88%. For the same compound, the remaining activity at 100 µM in assay [1] (100 μM) is 77.6 ± 3.43%; at DOT1L/KMT4 (100 μM, read-out: % DOT1L residual activity) it was 1.35 ± 0.17%. Further, the “inhibition of DOT1L/KMT4 (in words)” value at DOT1L/KMT4 (10 μM) is “significantly inhibited”.

The values are drawn from paper PMC10578352, “Identification of a Protein Arginine Methyltransferase 7 (PRMT7)/Protein Arginine Methyltransferase 9 (PRMT9) Inhibitor” (Journal of Medicinal Chemistry, 2023).
